Data: patent US20050130232A1, “Methods of screening for compounds that modulate hormone receptor activity” (Allergan, Inc., priority 2001, published 2005)

Legend:
Assay type in all cases: cell-based
[1] = target: T1, protein kinase A activity associated with RXRα (Homo sapiens, UniProt P19793); test: Protein kinase A activity in anti-Flag immunoprecipitates of PH-RXRα or RXRα transfected HEK 293 cells, synthetic peptide substrate; settings: Flag-RXRα lacking pleckstrin homology domain, 10^-7 M, substrate LRRASLG, vs control vehicle
T1 sequence (P19793 1-462): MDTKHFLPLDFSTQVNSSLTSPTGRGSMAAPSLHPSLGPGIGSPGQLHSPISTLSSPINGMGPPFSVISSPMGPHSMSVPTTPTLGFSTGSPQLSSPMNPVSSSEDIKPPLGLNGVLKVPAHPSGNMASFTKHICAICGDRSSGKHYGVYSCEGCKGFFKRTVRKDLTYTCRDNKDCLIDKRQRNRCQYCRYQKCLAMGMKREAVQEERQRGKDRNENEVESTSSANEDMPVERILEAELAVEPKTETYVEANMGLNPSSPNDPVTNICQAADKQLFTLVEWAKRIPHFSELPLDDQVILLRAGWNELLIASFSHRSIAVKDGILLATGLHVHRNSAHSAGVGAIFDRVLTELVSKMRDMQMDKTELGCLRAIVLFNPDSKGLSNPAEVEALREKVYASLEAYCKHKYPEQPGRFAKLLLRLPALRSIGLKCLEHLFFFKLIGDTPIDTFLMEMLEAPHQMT
Procedure: 293 cells were transfected with PH-RXRα. Sample 1: 0.1% DMSO (10 minutes). […] Sample 3: 0.1% DMSO (30 minutes).
Sample 1: 0.1% DMSO (10 minutes). […] Sample 3: 0.1% DMSO (30 minutes). […] Sample 5: No immunoprecipitate.
Sample 1: 0.1% DMSO. […] Sample 3: 0.1% DMSO with PKA inhibitor. […] Sample 5: 0.1% DMSO.
Following immunoprecipitation with anti-Flag antibody, the synthetic PKA substrate, LRRASLG (SEQ ID NO: 59), was added to the immunoprecipitate along with γ-ATP.
HEK 293 were cultured and transfected essentially as described above. Immunoprecipitates were prepared using the anti-Flag antibody, M2, as described above. Assays for protein kinase A activity were performed as follows. Immunoprecipitated complexes were resuspended in 40 μl of Kinase Assay Buffer (30 mM Tris-HCl, pH 7.4 and 10 mM MgCl2). Kinase reactions were initiated by addition of 10 μl of 500 μM synthetic peptide LRRASLG (SEQ ID NO: 59) or […] (SEQ ID NO: 60) prepared by Upstate Biotechnology (Lake Placid, N.Y.) and addition of 50 μM [γ-^32P]ATP (10 μCi) to the immune-complexes. […]
Incorporated ^32P was separated from free label by applying the reaction mixture onto P81 phosphocellulose paper and subsequently washing the paper three times with 0.75% phosphoric acid and once with acetone. Protein kinase reaction samples were analyzed in a scintillation counter to determine the amount of ^32P-incorporation.

[2] = test system: protein kinase A activity associated with RXRα (Homo sapiens); test: PKA activity in S293 cells overexpressing the catalytic subunit of PKA
From the text: Sample 1: No ligand; immunoprecipitation with beads only. […] Sample 3: No ligand; immunoprecipitation with anti-FLAG antibody. […] Sample 5: No ligand; immunoprecipitation with beads only. […] Sample 7: No ligand; immunoprecipitation with anti-PKA antibody.
S293 cells (HEK293 cells stably overexpressing RXRα) were transfected with the pFC-PKA expression vector encoding the catalytic subunit of protein kinase A and with Flag-tagged PH-RXRα essentially as described above. This commercially available expression vector expresses the catalytic subunit of murine protein kinase A under control of the CMV promoter (Stratagene; San Diego, Calif.).

[3] = target: T2, RXRα associated protein kinase (Homo sapiens, UniProt P19793); test: In vitro phosphorylation of exogenous protein substrates by RXR-associated kinase; settings: Flag-RXR transfected cells, 10^-7 M
T2 sequence (P19793 1-462): T1 sequence (P19793 1-462)
Procedure: Total cell lysates were immunoprecipitated with anti-FLAG antibody (M2). Immunoprecipitated material was used for in vitro kinas reaction with γ-^32P-ATP alone or with addition of exogenous mixed histones or myelin basic protein (MBP). The phosphorylated proteins were separated on SDS-PAGE and detected by autoradiography.
After terminating the kinase reaction, the products were analyzed by SDS-PAGE.
Kinase reactions with purified proteins were performed essentially as described above for synthetic peptide substrates. Briefly, immunoprecipitated complexes were resuspended in kinase assay buffer with 2 μg myelin basic protein (Sigma) or histone-M (Roche), and kinase reactions initiated by addition of 50 μM [γ-^32P]ATP (10 μCi). The reaction mixtures were then incubated at 25° C. with occasional shaking for 20 minutes, and terminated by addition of sample buffer. SDS-PAGE analysis and autoradiography were used to visualize the results.

RXRα = target: T3, RXRα (Homo sapiens, UniProt P19793); test: In vivo metabolic labeling with [32P]orthophosphate of Flag-RXR transfected HEK 293 cells; parameters: expressed in transfected cells; host or cells: HEK 293; settings: [32P]orthophosphate labeling, ligand 10 minutes
T3 sequence (P19793 1-462): T1 sequence (P19793 1-462)
From the text: (A) AGN194204-dependent protein kinase activity in Flag-RXR immunocomplexes, which were immunoprecipitated from transfected cells using antibody against the “Flag” epitope tag fused to the RXR receptor. […] Total cell lysates were immunoprecipitated with anti-Flag antibody (M2). Aliquots of the immunocomplexes were used for the in vitro kinase reaction with [γ-^32P]ATP and separated on SDS-PAGE. Phosphorylated proteins were detected by autoradiography (top panel). Additional aliquots of the immunocomplexes were subjected to immunoblotting with polyclonal anti-RXR antisera (D20; bottom panel). (B) Phosphoamino acid analysis. Flag-RXR and the 160-kDa protein were phosphorylated in vitro and separated on SDS-PAGE as described above, then transferred onto PVDF membrane, detected by autoradiography, and cut out for hydrolysis with acid (6 N HCl). The phosphorylated amino acids and standards (P-Ser, P-Thr, and P-Tyr) were separated by thin-layer chromatography. Positions of the standards P-Ser, P-Thr, and P-Tyr were visualized by ninhydrin staining and are indicated by arrows. (C) In vivo metabolic labeling of transfected HEK 293 cells. […] Cells were washed with phosphate-free medium and starved for 90 minutes before incubation with [^32P]orthophosphate for another 4 hours. […] Phosphorylated proteins were detected by autoradiography. […]

With `CC(/C=C/[C@@H]1C[C@]1(C)c1ccc2c(c1)C(C)(C)CCC2(C)C)=C\C(=O)O` [AGN194204] the “protein kinase A activity associated with RXRα” value [1] was “significantly enhanced”, the “protein kinase A activity in immunoprecipitates” value ([2]; immunoprecipitation with anti-Flag antibody) was “dramatic increase” and the “protein kinase A activity in immunoprecipitates” value ([2]; immunoprecipitation with anti-PKA antibody) was “only a marginal ligand-dependent increase”. For the same molecule, the “in vitro phosphorylation of histone-M” value [3] was “increased”, the “in vitro phosphorylation of myelin basic protein (MBP)” value [3] was “dramatically increased” and the “in vivo phosphorylation of RXRα” value (RXRα) was “stimulated”.
